Results from PMC8607422, “Development of a novel TLR8 agonist for cancer immunotherapy” (Molecular Biomedicine, 2020).

What was measured:
hERG = target: T1, hERG (Homo sapiens, UniProt Q12809); experiment: hERG assay, whole-cell recordings with automated QPatch in CHO cells; type: cell-based
T1 construct: expressed in transfected cells; host or cells: CHO
Procedure: hERG assay was conducted using CHO cell line stably transduced with hERG cDNA. Whole-cell recordings were performed using automated QPatch (Sophion Biosciences). Data were analyzed using Assay Software provided by Sophion (assay software V5.0), Microsoft Excel and GraphPad Prism.

hTLR8 = target: T2, hTLR8 (Homo sapiens, UniProt Q9NR97); experiment: HEK-Blue hTLR8 SEAP reporter agonist assay; type: cell-based
T2 construct: host or cells: HEK-Blue hTLR8 (HEK293-derived, per own knowledge)
T2 sequence (Q9NR97 27-1041): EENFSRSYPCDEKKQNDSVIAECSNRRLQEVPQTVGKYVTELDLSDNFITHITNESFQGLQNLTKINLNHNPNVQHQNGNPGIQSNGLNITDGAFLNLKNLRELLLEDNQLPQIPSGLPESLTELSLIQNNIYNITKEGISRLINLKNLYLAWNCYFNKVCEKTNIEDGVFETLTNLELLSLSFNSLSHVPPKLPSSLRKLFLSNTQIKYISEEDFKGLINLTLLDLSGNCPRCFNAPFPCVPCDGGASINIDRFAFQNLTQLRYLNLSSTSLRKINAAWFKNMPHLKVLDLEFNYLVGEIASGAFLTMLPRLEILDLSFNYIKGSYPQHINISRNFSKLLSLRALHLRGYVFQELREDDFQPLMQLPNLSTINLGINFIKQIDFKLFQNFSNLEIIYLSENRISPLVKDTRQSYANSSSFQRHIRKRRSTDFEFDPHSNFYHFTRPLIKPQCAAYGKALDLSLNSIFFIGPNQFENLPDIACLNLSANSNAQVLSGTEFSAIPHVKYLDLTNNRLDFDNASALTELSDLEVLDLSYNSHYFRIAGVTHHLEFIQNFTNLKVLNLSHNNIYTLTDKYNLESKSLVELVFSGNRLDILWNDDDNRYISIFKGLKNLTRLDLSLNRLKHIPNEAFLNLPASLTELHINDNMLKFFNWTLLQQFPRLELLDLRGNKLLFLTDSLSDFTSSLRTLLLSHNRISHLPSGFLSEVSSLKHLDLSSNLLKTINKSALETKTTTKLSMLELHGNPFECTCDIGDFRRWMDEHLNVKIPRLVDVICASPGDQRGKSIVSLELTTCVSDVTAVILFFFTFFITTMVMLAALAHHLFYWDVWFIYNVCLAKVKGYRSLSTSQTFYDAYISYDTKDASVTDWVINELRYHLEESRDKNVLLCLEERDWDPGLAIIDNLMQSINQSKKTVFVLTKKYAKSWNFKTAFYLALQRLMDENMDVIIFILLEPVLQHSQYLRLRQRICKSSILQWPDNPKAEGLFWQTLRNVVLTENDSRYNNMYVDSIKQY
Excerpt: HEK-Blue™ hTLR4, 7, 8 and 9 cell lines were purchased from InvivoGen (Hong Kong). The cells express the human TLR gene and NF-κB/AP-1-inducible SEAP (secreted embryonic alkaline phosphatase) reporter gene. SEAP levels produced upon TLR stimulation can be determined by QUANTI-Blue™. In the cell-based assay, the main reagents used were QUANTI-Blue™ (InvivoGen) and ATPlite 1 Step (Perkin Elmer). The main instruments used were the microplate reader SpectraMax 340PC (Molecular Device) and Envision (Perkin Elmer). […] The compounds were in 10 mM stock solution in DMSO and stored at − 20°C. […] DMSO was used as the negative control. […] The cells were cultured and treated with the compounds at 37°C, 5%CO2 for 24 h. After 24 h of incubation, 20 μl of the supernatant of each well was added to 180 μl of QUANTI-Blue™. The plates were incubated at 37°C for 1.5 h. After 1.5 h of incubation, the optical density was measured using the spectrophotometer at 650 nm in the microplate reader of SpectraMax 340PC. The cell viability of each well was determined using ATPlite 1 Step following the manufacturer’s instruction. The luminescence signal in each well of plates was measured in the microplate reader of Envision.

T1 sequence (Q12809 whole entry): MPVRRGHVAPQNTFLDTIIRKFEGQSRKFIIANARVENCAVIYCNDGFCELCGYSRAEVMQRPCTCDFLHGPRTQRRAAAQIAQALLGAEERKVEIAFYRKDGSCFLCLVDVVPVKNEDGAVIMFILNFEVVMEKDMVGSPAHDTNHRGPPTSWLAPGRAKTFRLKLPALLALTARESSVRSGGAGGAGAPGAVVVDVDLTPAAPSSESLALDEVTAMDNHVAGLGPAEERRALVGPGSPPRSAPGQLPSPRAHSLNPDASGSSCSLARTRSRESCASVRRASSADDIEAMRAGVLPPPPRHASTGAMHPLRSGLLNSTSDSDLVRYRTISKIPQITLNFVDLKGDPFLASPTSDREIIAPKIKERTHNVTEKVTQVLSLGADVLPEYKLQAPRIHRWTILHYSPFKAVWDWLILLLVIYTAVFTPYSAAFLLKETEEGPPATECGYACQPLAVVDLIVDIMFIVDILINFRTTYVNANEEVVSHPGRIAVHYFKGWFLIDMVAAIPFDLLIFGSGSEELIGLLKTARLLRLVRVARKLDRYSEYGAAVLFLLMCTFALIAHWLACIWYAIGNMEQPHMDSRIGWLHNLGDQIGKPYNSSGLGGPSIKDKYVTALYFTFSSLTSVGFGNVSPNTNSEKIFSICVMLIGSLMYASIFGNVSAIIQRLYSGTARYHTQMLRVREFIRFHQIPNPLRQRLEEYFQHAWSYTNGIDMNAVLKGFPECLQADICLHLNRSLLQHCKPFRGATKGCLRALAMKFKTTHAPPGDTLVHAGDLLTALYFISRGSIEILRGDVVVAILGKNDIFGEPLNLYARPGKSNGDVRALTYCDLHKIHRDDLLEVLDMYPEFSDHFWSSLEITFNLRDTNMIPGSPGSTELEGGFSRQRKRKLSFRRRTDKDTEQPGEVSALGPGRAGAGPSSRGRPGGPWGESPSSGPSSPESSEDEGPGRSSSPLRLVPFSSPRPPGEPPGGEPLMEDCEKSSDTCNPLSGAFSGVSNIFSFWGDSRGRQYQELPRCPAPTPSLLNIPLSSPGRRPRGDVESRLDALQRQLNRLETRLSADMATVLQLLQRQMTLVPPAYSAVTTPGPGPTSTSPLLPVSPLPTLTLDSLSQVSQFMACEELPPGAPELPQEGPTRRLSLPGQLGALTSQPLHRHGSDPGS

EC50 (hTLR8; HEK-Blue hTLR8 cells, 24 h, SEAP, read-out: EC50 in hTLR8 agonist activity (TLR8 cell EC50)): 109 nM | TLR8 selectivity (hTLR8; TLR8 over other TLR cell EC50): 182 fold
SMILES: CCCN(CCC)C(=O)C1=Cc2ccc(-c3ccc(C(=O)N4CCCC4)cc3)cc2N=C(N)C1 [Motolimod, motolimod]
IC50 (hERG): 3.84 µM
